{"source": "patent US10596223B2", "about": "“JNK inhibitor molecules for treatment of various diseases” (Xigen Inflammation Ltd., priority 2011, dated 2020)", "key": {"[1]": {"system": "established type II collagen arthritis in rats", "format": "in vivo, rat", "text": "Rat collagen arthritis is an experimental model of polyarthritis that has been widely used for preclinical testing of numerous anti-arthritic agents that are either under preclinical or clinical investigation or are currently used as therapeutics in this disease. The hallmarks of this model are reliable onset and progression of robust, easily measurable polyarticular inflammation, marked cartilage destruction in association with pannus formation, and mild to moderate bone resorption and periosteal bone proliferation.\nIntravenous (IV) efficacy of the JNK inhibitor of SEQ ID NO: 172 administered daily (QD) for 14 days (arthritis d1-14) for inhibition of the inflammation (paw swelling), cartilage destruction, and bone resorption that occurs in established type II collagen arthritis in rats was determined in said experimental model. […]\nFemale Lewis rats with established type II collagen arthritis were treated daily (QD) on arthritis days 1-14 by the intravenous (IV) route with vehicle (NaCl), SEQ ID NO: 172 (0.01, 0.1, 1, or 5 mg/kg), or the reference compound dexamethasone (Dex, 0.05 mg/kg). […] Efficacy evaluation was based on animal body weights, daily ankle caliper measurements, ankle diameter expressed as area under the curve (AUC), terminal hind paw weights, and histopathologic evaluation of ankles and knees of selected groups. […]"}, "[2]": {"test": "Stability (half-life) in human serum, intact peptide by UPLC-MS", "format": "in vitro ADME", "details": "human serum (50% in FIG. 5; 10 and 50% in PBS), 0.1 mM peptide", "protocol": "FIG. 5: Stability of JNK inhibitors with SEQ ID NOs: 172, 196 and 197 in 50% human serum. The JNK inhibitor with SEQ ID NO: 196 was totally degraded into amino acids residues within 6 hours (A). The JNK inhibitor with SEQ ID NO: 172 was completely degraded only after 14 days (B). The JNK inhibitor with SEQ ID NO: 197 was stable at least up to 30 days (B).\nThe JNK inhibitors with the sequence of SEQ ID NOs: 196, 197, and 172 (0.1 mM final concentration) were digested in human serum (10 and 50% in PBS 1×). The experiment was performed as described by Tugyi et al. (Proc Natl Acad Sci USA, 2005, 413-418). The remaining intact peptide was quantified by UPLC-MS. Stability was assessed for SEQ ID NOs: 196, 197, and 172 identically but in two separate assays. While the JNK inhibitor with SEQ ID NO: 196 was totally degraded into amino acids residues within 6 hours, the JNK inhibitor with SEQ ID NO: 172 was completely degraded only after 14 days. The JNK inhibitor with SEQ ID NO: 197 was still stable after 30 days."}}, "note": "Square brackets hold non-standard residues; d marks the D form. Peptide text beside a SMILES is read from it."}
{"smiles": "CC(C)C[C@H](NC(=O)[C@H](CC(N)=O)NC(=O)[C@H](CC(C)C)NC(=O)[C@@H](NC(=O)[C@@H](C)NC(=O)[C@@H]1CCCN1C(=O)[C@H](CCCNC(=N)N)NC(=O)[C@@H](CCCCN)NC(=O)[C@@H]1CCCN1C(=O)[C@H](CCCNC(=N)N)NC(=O)[C@@H](CCCNC(=N)N)NC(=O)[C@H](CCCNC(=N)N)NC(=O)[C@H](CCCNC(=N)N)NC(=O)[C@H](CCC(N)=O)NC(=O)[C@@H](CCCNC(=N)N)NC(=O)[C@H](CCCNC(=N)N)NC(=O)[C@H](CCCCN)NC(=O)[C@H](CCCCN)NC(=O)[C@H](N)CCCNC(=N)N)[C@@H](C)O)C(=O)N[C@H](Cc1ccccc1)C(N)=O", "note": "[SEQ ID NO: 172, rKKRrQRRrRPkRPaTLNLf] (H-[dR]KKR[dR]QRR[dR]RP[dK]RP[dA]TLNL[dF]-NH2; N-terminus assumed)", "values": [{"measurement": "clinical and histopathology parameters (conclusion)", "setting": "[1]; 5 mg/kg IV QD 14 days", "value": "significant beneficial effect on the clinical and histopathology parameters"}, {"measurement": "daily ankle diameter measurements vs disease controls", "setting": "[1]; 5 mg/kg IV QD, p<0.05 days 4-12", "value": "reduced toward normal"}, {"measurement": "completely degraded only after", "setting": "[2]", "value": 14, "unit": "days"}]}
